Measured values reported in patent publication US20060134017A1, “Oral treatment compositions containing an anti-adhesion agent, antibacterial agent and incompatible compound” (Colgate-Palmolive Company, priority 2004, published 2006).

Experiments:
[1] = generic protease activity assay (Panvera); format: biochemical; conditions: neat powder, 40° C., neutral pH; +/-3
Procedure: The activity of proteases was evaluated using generic protease assay from Panvera at 40° C. and neutral pH. The activity was assessed relative to papain on an equal weight basis of neat powder samples. Krillase protease enzymes are a mixture of eight different proteases; thus, the activity of any one of the eight was not discernable by the present assay. The assay aided in determining dose for the dose response studies. In clinical formulations, enzymes were dosed based on an equal weight basis. Table 2 gives the relative activity of neat enzymes.

[2] = test system: oral bacteria culture on saliva-coated hydropxyapatite (SHAP) disks; assay: Artificial Mouth anti-attachment efficacy model (chemostat flow cell, SHAP disks); format: cell-based; conditions: for anti-adhesion efficacy, ranking of in vitro results: toothpaste formulas; for anti-adhesion efficacy relative to matching negative control paste (statistical analysis): toothpaste with 0.226 weight percent protease, ABS610 after 24 hours
Source text: To test the efficacy of the actives in toothpaste formulas, the Artificial Mouth model was utilized. This is generally described in Herles, S., S. Olsen, et al. (1994). “Chemostat flow cell system: an in vitro model for the evaluation of antiplaque agents.” J Dent Res 73(11): 1748-55. The Artificial Mouth model is a flow system that simulates the human mouth. Saliva-coated hydropxyapatite (SHAP) disks served as the artificial teeth, and a bacteria culture consisting of the main oral bacteria in humans flowed through the system at a speed consistent with the in vivo human saliva. Eight disks for each treatment were then placed in the chemostat flow cell and oral bacteria culture was allowed to flow through the disks overnight (20-24 hours) to see if actives coated on the disk surfaces would prevent bio-film formation. After 24 hours the SHAP disks were removed and amount of bacteria quantified. The ABS610 of the solutions were then measured and analyzed. […] From this value, the percentage anti-adhesion effectiveness of the pastes is evaluated relative to a matching negative control. Two concentrations of protease were tested for each of the three protease; namely. 0.226 weight percent and 0.065 weight percent.

Row | Molecule | Activity by protease assay [1] [CPU/g] | anti-adhesion efficacy, ranking of in vitro results [2] | anti-adhesion efficacy relative to matching negative control paste (statistical analysis) [2]
1 | Ficin | 23 | better then the papain | showed efficacy
2 | Papain: cysteine protease enzyme obtained from the fruit and leaves of Carica papaya (EDC papain) (protein, UniProt P00784 134-345, looked up) Papain: IPEYVDWRQKGAVTPVKNQGSCGSCWAFSAVVTIEGIIKIRTGNLNEYSEQELLDCDRRSYGCNGGYPWSALQLVAQYGIHYRNTYPYEGVQRYCRSREKGPYAAKTDGVRQVQPYNEGALLYSIANQPVSVVLEAAGKDFQLYRGGIFVGPCGNKVDHAVAAVGYGPNYILIKNSWGTGWGENGYIRIKRGTGNSYGVCGLYTSSFYPVKN | 25 | better then the matching placebo paste | showed efficacy
